Laboratory results from patent publication EP0216105A1, “Diazaphosphorines, process for their preparation and their use as pesticide” (priority 1985, dated 1987).

Assays:
Caenorhabditis elegans = assay: In vitro nematode test; details: concentration at which reproduction is prevented, 7 days at 22°C; for minimal effective concentration: Caenorhabditis elegans, 168 h, read-out: Dosis effectiva
Description: 10-^4 g Wirkstoff wurden in 1 ml Wasser oder 0,1 ml Dimethylsulfoxid (DMSO) gelöst. Diese Lösung wurde auf eine Replica-Platte gegeben. Dazu wurden 2 ml einer E-coli-Suspension gegeben, in der man 10-20 weibliche Tiere oder Larven von Caenorhabditis elegans in 0,5 ml M9 Pufferlösung gegeben hat. Die E-coli-Suspension wurde hergestellt indem man 300 ml einer Ubernachthalter eines Uracil-bedürftigen E-coli-Stammes mit 1,8 1 steriler M 9 Pufferlösung versetzte.
Der Versuchsansatz wurde 7 Tage bei 22°C inkubiert und danach ausgewertet. Es wurde bewertet inwieweit der Wirkstoff die Vermehrung beeinträchtigt und die Konzentration angegeben bei der die Vermehrung verhindert wird.

[1] = test system: Mückenlarven (L4) (Aedes aegypti); assay: Aedes test (larvae in aqueous preparation); format: in vivo; details: 20 Aedes aegypti larvae (L4) per glass; compared with the prior art; figures not given
Excerpt: • Löcungcmittal: 3 Gewichtsteile Aceton • Emulgator: 1 Gewichtsteil Alkylarylpolyglykolether
Zur Herstellung einer zweckmäßigen Wirkstoffzubereitung vermischt man 1 Gawichtcteil Wirkstoff mit der angegebenen Menge Löcungcmittel und der angegebenen Menge Emulgator und verdünnt das Konzentrat mit Wasser auf die gewünschte Konzentrationen.
Man füllt die wässrigen Wirkctoffzubereitungen in Gläser und setzt anschließend 20 Mückenlarven (L4) (Aedes aegypti) in jedes Glas ein.
Nach der gewünschten Zeit wird die Abtötung in % bestimmt. Dabei bedeutet 100 X, daß alle Tiere abgetötet wurden; 0 % bedeutet, daß keine Tiere abgetötet wurden.

[2] = test system: Musca domestica-tmultiresistent) Maden; assay: Fly maggot development inhibition test; format: in vivo; details: Musca domestica maggots on treated filter paper, 14 days; compared with the prior art; figures not given
Description: Fliegenmaden-Entwicklungshommungstest Testtiere: Musca domestica-tmultiresistent) Maden Lösungsmittel: Aceton
2 Gewichtsteile Wirkstoff werden in 1 000 Volumenteilen Lösungsmittel aufgenommen. Die so erhaltene Lösung wird mit weiteren Lösungsmitteln auf die gewünschten Konzentrationen verdünnt.
2,5 ml Wirkstofflösung werden in eine Petrischale pipettiert. Auf dem Boden der Petrischale befindet sich ein Filterpapier mit einem Durchmesser von etwa 9,5 cm. Die Petrischale bleibt so lange offen stehen, bis das Lösungsmittel vollständig verdunstet ist. Je nach Konzentration der Wirkstofflösung ist die Menge Wirkstoff pro m^2 Filterpapier verschieden hoch. Anschließend gibt man etwa 25 Testtiere in die Petrischale und bedeckt sie mit einem Glasdeckel.
14 Tage nach Ansetzen der Versuche wird die Zahl der geschlüpften Fliegen kontrolliert. Bestimmt wird der X-Satz der Schlüpfhemmung im Vergleich zur unbehandelten Kontrolle.

[3] = test system: Lucilia cuprina res.-Larven; assay: Test with resistant Lucilia cuprina larvae; format: in vivo; details: horse meat, after 24 hours, compared with the prior art, figures not given
Excerpt: Test mit Lucilia cuprina resistent-Larven
• Emulgator: 35 Gewichtsteile Ethylenglykolmonomethylether • 35 Gewichtsteile Nonylphenolpolyglykolether
Zur Herstellung einer zweckmäßigen Wirkstoffzubereitung vermischt man drei Gewichtsteile Wirkstoff mit sieben Gewichtsteilen des oben angegebenen Gemisches und verdünnt das so erhaltene Konzentrat mit Wasser auf die jeweils gewünschte Konzentration.
Etwa 20 Lucilia cuprina res.-Larven werden in ein Teströhrchen gebracht, welches ca. 1 cm^3 Pferdefleisch und O,5 ml der Wirkstoffzubereitung enthält. Nach 24 Stunden wird der Abtötungsgrad bestimmt.

[4] = test system: Larven (L3) des Meerrettichkäfers (Phaedon cochleariae); assay: Phaedon larvae test (treated cabbage leaves); format: in vivo; details: Phaedon cochleariae larvae (L3) on treated Brassica oleracea leaves; compared with the prior art; figures not given
Excerpt: (§1) • Lösungsmittel: 3 Gewichtsteile Aceton • Emulgator: 1 Gewichtsteil Alkylarylpolyglykolether
Zur Herstellung einer zweckmäßigen Wirkstoffzubereitung vermischt man 1 Gewichtsteil Wirkstoff mit der angegebenen Menge Lösungsmittel und der angegebenen Menge Emulgator und verdünnt das.Konzentrat mit Wasser auf die gewünschte Konzentration.
Kohlpflanzen (Brassica oleracea) werden mit der Wirkstoffzubereitung der gewünschten Konzentration behandelt. Ein Blatt der behandelten Pflanze wird in eine Plastikdose gelegt und mit Larven (L3) des Meerrettichkäfers (Phaedon cochleariae) besetzt. Nach 2 und 4 Tagen wird jeweils ein weiters Blatt von derselben Pflanze für die Nachfütterung verwendet.
Nach der gewünschten Zeit wird die Abtötung in % bestimmt. Dabei bedeutet 100 X, daß alle Käferlarven abgetötet wurden.

[5] = test system: Raupe (L5) der Art Spodoptera frugiperda; assay: Spodoptera test (treated artificial diet discs); format: in vivo; details: Spodoptera frugiperda caterpillars (L5) on treated artificial diet; compared with the prior art; figures not given
Excerpt: as §1
Zur Herstellung einer zweckmäßigen Wirkstoffzubereitung vermischt man 1 Gewichtsteil Wirkstoff mit der angegebenen Menge Lösungsmittel und der angegebenen Menge Emulgator und verdünnt das Konzentrat mit Wasser auf die gewünschte Konzentrationen.
Kunstfutterscheiben, die in Plastikdosen liegen, werden durch Beträufeln mit der Wirkstoffzubereitung der gewünschten Konzentration behandelt. Nach Eindringen der Lösung besetzt man die Plastikdosen mit je 1 Raupe (L5) der Art Spodoptera frugiperda, wobei je Versuchsglied 5 Wiederholungen aufgestellt werden. Nach der Verpuppung legt man die Tiere eines Versuchsglieds in eine größere Dose. Nach der gewünschten Zeit wird die Abtötung in % bestimmt. Dabei bedeutet 100 X, daß alle Tiere abgetötet wurden; 0 X bedeutet, daß keine Tiere abgetötet wurden.

CN1C(=O)C(C(=O)Nc2ccc([N+](=O)[O-])cc2)C(=O)N(C)P1(=O)Oc1ccc(Cl)cc1 (centres unmarked) [Beispiel 4]
minimal effective concentration (Caenorhabditis elegans): 10 µg/mL

CN1C(=O)C(C(=O)Nc2ccc(S(=O)(=O)C(F)(F)F)cc2)C(=O)N(C)P1(=O)Oc1ccc(Cl)cc1 (centres unmarked) [Beispiel 5]
Dosis effectiva (Caenorhabditis elegans): 10 mg/L

CN1C(=O)C(C(=O)Nc2ccc(Cl)c(C(F)(F)F)c2)C(=O)N(C)P1(=S)Oc1ccc(Cl)cc1 (centres unmarked) [Beispiel 6]
Abtötung in % [1]: überlegene Wirksamkeit gegenüber dem Stand der Technik
minimal effective concentration (Caenorhabditis elegans): 10 µg/mL
X-Satz der Schlüpfhemmung im Vergleich zur unbehandelten Kontrolle [2]: überlegene Wirksamkeit gegenüber dem Stand der Technik

CN1C(=O)C(C(=O)Nc2ccc(SC(F)(F)F)cc2)C(=O)N(C)P1(=O)Oc1ccc(Cl)cc1 (centres unmarked) [Beispiel 8]
Abtötung in % [1]: überlegene Wirksamkeit gegenüber dem Stand der Technik
Dosis effectiva (Caenorhabditis elegans): 10 mg/L
Abtötungsgrad [3]: überlegene Wirkung gegenüber dem Stand der Technik
Abtötung in % [4]: überlegene Wirksamkeit gegenüber dem Stand der Technik

CN1C(=O)C(C(=O)Nc2ccc(SC(F)(F)F)cc2)C(=O)N(C)P1(=O)Oc1ccccc1 (centres unmarked) [Beispiel 10]
Abtötung in % [1]: überlegene Wirksamkeit gegenüber dem Stand der Technik
minimal effective concentration (Caenorhabditis elegans): 10 µg/mL
Abtötung in % [4]: überlegene Wirksamkeit gegenüber dem Stand der Technik
Abtötung in % [5]: überlegene Wirksamkeit gegenüber dem Stand der Technik

CN1C(=O)C(C(=O)Nc2ccccc2SC(F)(F)F)C(=O)N(C)P1(=O)Oc1ccccc1 (centres unmarked) [Beispiel 11]
minimal effective concentration (Caenorhabditis elegans): 100 µg/mL

CN1C(=O)C(C(=O)Nc2ccc(S(=O)(=O)C(F)(F)F)cc2)C(=O)N(C)P1(=O)Oc1ccccc1 (centres unmarked) [Beispiel 13]
minimal effective concentration (Caenorhabditis elegans): 10 µg/mL

CN1C(=O)C(C(=O)Nc2ccc(OC(F)(F)C(F)F)cc2)C(=O)N(C)P1(=O)Oc1ccccc1 (centres unmarked) [Beispiel 15]
minimal effective concentration (Caenorhabditis elegans): 10 µg/mL
Abtötung in % [4]: überlegene Wirksamkeit gegenüber dem Stand der Technik

CN1C(=O)C(C(=O)Nc2ccc(OC(F)(F)F)cc2)C(=O)N(C)P1(=O)Oc1ccccc1 (centres unmarked) [Beispiel 16]
Abtötung in % [1]: überlegene Wirksamkeit gegenüber dem Stand der Technik
minimal effective concentration (Caenorhabditis elegans): 10 µg/mL
Abtötung in % [4]: überlegene Wirksamkeit gegenüber dem Stand der Technik
Abtötung in % [5]: überlegene Wirksamkeit gegenüber dem Stand der Technik

CN1C(=O)C(C(=O)Nc2ccc(OC(F)(F)F)cc2)C(=O)N(C)P1(=O)Oc1ccc(Cl)cc1 (centres unmarked) [Beispiel 17]
minimal effective concentration (Caenorhabditis elegans): 10 µg/mL
Abtötung in % [5]: überlegene Wirksamkeit gegenüber dem Stand der Technik

CN1C(=O)C(C(=O)Nc2ccc([N+](=O)[O-])cc2)C(=O)N(C)P1(=O)Oc1ccc([N+](=O)[O-])cc1 (centres unmarked) [Beispiel 18]
minimal effective concentration (Caenorhabditis elegans): 100 µg/mL

COc1ccc(NC(=O)C2C(=O)N(C)P(=O)(Oc3ccc(OC)cc3)N(C)C2=O)cc1 (centres unmarked) [Beispiel 19]
minimal effective concentration (Caenorhabditis elegans): 100 µg/mL

COc1ccc(NC(=O)C2C(=O)N(C)P(=O)(Oc3ccc(C)cc3)N(C)C2=O)cc1 (centres unmarked) [Beispiel 20]
minimal effective concentration (Caenorhabditis elegans): 10 µg/mL

CN1C(=O)C(C(=O)Nc2ccc(S(=O)(=O)C(F)(F)F)cc2)C(=O)N(C)P1(=O)Oc1ccc(Cl)cc1 (centres unmarked) [Beispiel 26]
Abtötung in % [1]: überlegene Wirksamkeit gegenüber dem Stand der Technik
Dosis effectiva (Caenorhabditis elegans): 100 mg/L
X-Satz der Schlüpfhemmung im Vergleich zur unbehandelten Kontrolle [2]: überlegene Wirksamkeit gegenüber dem Stand der Technik
Abtötungsgrad [3]: überlegene Wirkung gegenüber dem Stand der Technik

CN1C(=O)C(C(=O)Nc2ccc(OC(F)(F)F)cc2)C(=O)N(C)P1(=S)Oc1ccc(Cl)cc1 (centres unmarked) [Beispiel 30]
minimal effective concentration (Caenorhabditis elegans): 10 µg/mL
X-Satz der Schlüpfhemmung im Vergleich zur unbehandelten Kontrolle [2]: überlegene Wirksamkeit gegenüber dem Stand der Technik
Abtötung in % [5]: überlegene Wirksamkeit gegenüber dem Stand der Technik

CN1C(=O)C(C(=O)Nc2ccc(SC(F)(F)F)cc2)C(=O)N(C)P1(=S)Oc1ccccc1 (centres unmarked) [Beispiel 33]
minimal effective concentration (Caenorhabditis elegans): 10 µg/mL
Abtötungsgrad [3]: überlegene Wirkung gegenüber dem Stand der Technik

CN1C(=O)C(C(=O)Nc2ccc(SC(F)(F)F)cc2)C(=O)N(C)P1(=S)Oc1ccc(Cl)cc1 (centres unmarked) [Beispiel 34]
minimal effective concentration (Caenorhabditis elegans): 100 µg/mL
Abtötungsgrad [3]: überlegene Wirkung gegenüber dem Stand der Technik
Abtötung in % [5]: überlegene Wirksamkeit gegenüber dem Stand der Technik

CN1C(=O)C(C(=O)Nc2ccc(SC(F)(F)F)cc2)C(=O)N(C)P1(=O)Oc1cccc(Cl)c1 (centres unmarked) [Beispiel 37]
minimal effective concentration (Caenorhabditis elegans): 10 µg/mL

CN1C(=O)C(C(=O)Nc2ccc(OC(F)(F)F)cc2)C(=O)N(C)P1(=O)Oc1cccc(Cl)c1 (centres unmarked) [Beispiel 38]
minimal effective concentration (Caenorhabditis elegans): 10 µg/mL

CC(C)N1C(=O)C(C(=O)Nc2ccc(C(F)(F)F)c(Cl)c2)C(=O)N(C)P1(=O)Oc1cccc(Cl)c1 (centres unmarked) [Beispiel 41]
minimal effective concentration (Caenorhabditis elegans): 10 µg/mL
Abtötungsgrad [3]: überlegene Wirkung gegenüber dem Stand der Technik

CC(C)N1C(=O)C(C(=O)Nc2ccc(SC(F)(F)F)cc2)C(=O)N(C)P1(=O)Oc1cccc(Cl)c1 (centres unmarked) [Beispiel 42]
minimal effective concentration (Caenorhabditis elegans): 10 µg/mL

CN1C(=O)C(C(=O)Nc2ccc(SC(F)(F)F)cc2)C(=O)N(c2ccccc2)P1(=O)Oc1ccccc1 (centres unmarked) [Beispiel 44]
minimal effective concentration (Caenorhabditis elegans): 10 µg/mL

CCN1C(=O)C(C(=O)Nc2ccc(Oc3ccc(C(F)(F)F)cc3)cc2)C(=O)N(C)P1(=O)Oc1cccc(Cl)c1 (centres unmarked) [Beispiel 46]
minimal effective concentration (Caenorhabditis elegans): 10 µg/mL

CC(C)N1C(=O)C(C(=O)Nc2ccc(C(F)(F)F)cc2C(F)(F)F)C(=O)N(Cc2ccccc2)P1(=O)Oc1cccc(Cl)c1 (centres unmarked) [Beispiel 51]
minimal effective concentration (Caenorhabditis elegans): 100 µg/mL

Cc1cccc(OP2(=O)N(C)C(=O)C(C(=O)Nc3ccc(SC(F)(F)F)cc3)C(=O)N2C(C)C)c1 (centres unmarked) [Beispiel 54]
minimal effective concentration (Caenorhabditis elegans): 10 µg/mL

CCN1C(=O)C(C(=O)Nc2ccc(C(F)(F)F)c(Cl)c2)C(=O)N(C)P1(=O)Oc1cccc(Cl)c1 (centres unmarked) [Beispiel 55]
minimal effective concentration (Caenorhabditis elegans): 10 µg/mL

CCN1C(=O)C(C(=O)Nc2ccc(C(F)(F)F)cc2C(F)(F)F)C(=O)N(C)P1(=O)Oc1cccc(Cl)c1 (centres unmarked) [Beispiel 56]
minimal effective concentration (Caenorhabditis elegans): 10 µg/mL

CCN1C(=O)C(C(=O)Nc2ccc(Cl)c(C(F)(F)F)c2)C(=O)N(C)P1(=O)Oc1cccc(Cl)c1 (centres unmarked) [Beispiel 57]
minimal effective concentration (Caenorhabditis elegans): 10 µg/mL

CCN1C(=O)C(C(=O)Nc2ccc(SC(F)(F)F)cc2)C(=O)N(C)P1(=O)Oc1cccc(Cl)c1 (centres unmarked) [Beispiel 58]
minimal effective concentration (Caenorhabditis elegans): 10 µg/mL

CCN1C(=O)C(C(=O)Nc2ccc(OC(F)(F)F)cc2)C(=O)N(C)P1(=O)Oc1cccc(Cl)c1 (centres unmarked) [Beispiel 59]
minimal effective concentration (Caenorhabditis elegans): 10 µg/mL

CCN1C(=O)C(C(=O)Nc2ccc(C(F)(F)F)c(C(F)(F)F)c2)C(=O)N(C)P1(=O)Oc1cccc(Cl)c1 (centres unmarked) [Beispiel 61]
minimal effective concentration (Caenorhabditis elegans): 10 µg/mL

CC(C)N1C(=O)C(C(=S)Nc2ccccc2)C(=O)N(C)P1(=O)Oc1cccc(Cl)c1 (centres unmarked) [Beispiel 62]
minimal effective concentration (Caenorhabditis elegans): 100 µg/mL

CC(C)N1C(=O)C(C(=O)Nc2ccc(SC(F)(F)F)c(Cl)c2)C(=O)N(C)P1(=O)Oc1cccc(Cl)c1 (centres unmarked) [Beispiel 64]
minimal effective concentration (Caenorhabditis elegans): 10 µg/mL

Cc1cccc(OP2(=O)N(C)C(=O)C(C(=O)Nc3ccc(Cl)c(C(F)(F)F)c3)C(=O)N2C(C)C)c1 (centres unmarked) [Beispiel 65]
minimal effective concentration (Caenorhabditis elegans): 10 µg/mL
